Source: US20250043353A1, “BIOMARKERS OF RESPONSE TO SELECTIVE INHIBITORS OF AURORA A KINASE” (Millennium Pharmaceuticals, Inc., priority 2015, published 2025)

What was measured:
[1] = system: advanced solid tumor types; details: patients with relapsed/refractory BC, SCLC, NSCLC, HNSCC, GE adenocarcinoma; activity in all except NSCLC; cited from earlier work
[2] = system: advanced solid tumor types; assay: association of somatically mutated genes/pathways (whole exome sequencing) with response to alisertib in trial patients; type: in vivo, human; details: for est: HR (hazard ratio) for progression free survival (PFS): adjusted by baseline, stratified by indication; for est: mean % best tumor size change between mutant and WT groups: all five tumor types, adjusted by tumor indication and tumor baseline size
Source text: The best tumor size change and progression-free survival (PFS) of the patients were used as the efficacy response endpoints.
The genomic DNA was isolated from 47 patients with 2-4 slides of 5 micron thickness from archived tumor biopsies with Qiagen FFPE kit (Qiagen, Germany). Genomic DNA from blood samples were extracted utilizing blood DNA kit (Qiagen, Germany). Tumor-normal (blood) paired DNAs were sequenced by whole exome DNA sequencing employing Agilent SureSelect exome capture and Illumina Hi-Seq™ technologies.
The downstream analysis was designed to identify potential biomarkers predictive of drug response using the high-confidence mutations obtained from the middle-stream analysis. A linear regression model and Cox proportional hazard model were used for best tumor size change and PFS as endpoints, respectively. Tumor type was considered as a covariate in both models to adjust its confounding effect. In case of linear regression for best tumor size change as an endpoint, baseline tumor size was added as an additional covariate since baseline tumor size is […] correlated with the endpoint. In the following linear regression equation, y=β0+β1x+βc1c1+βc2c2+ε, y, x, c1, c2, and c represent the best tumor size change, a single gene mutation status, tumor type, baseline tumor size, and random error, respectively. When the gene harbors high-confidence mutation(s), x becomes 1; otherwise, it is 0. The 1st covariate c1 was converted into five binary variables to represent the five different tumor types and the 2nd covariate c2 is a continuous variable. As a result, the coefficient fi indicates the contribution of the mutated gene to sensitivity or resistance to alisertib treatment after adjusting the potential confounding effects of the covariates. A p-value was computed for testing the null hypothesis β1=0. Since multiple genes were tested using these models and the p-values were corrected for multiple hypothesis testing using false discovery rate (FDR).
A similar approach was used for the pathway association analysis. A pathway can be defined as a group of genes that are known to be interacting together for a common biological function. […] Two types of statistical tests were selected in order to test the degree of association of mutations on the pathway level and alisertib treatment outcome, particularly best tumor size change. […] A linear regression model was built using this binary variable as an independent variable and tumor type and baseline tumor size were used as covariates, similar to the equation used for gene-level association. Secondly, sequence kernel association tests (SKAT) were run to account for cases where individual mutated genes in a pathway contribute differently to drug sensitivity or resistance. […] As the two methods, linear regression and SKAT, provide different angles in terms of association between pathways and alisertib response, the smaller p-value (the best of the two tests, BOT from here on) was selected as a representative p-value for each pathway. The p-values of the pathways were subjected to multiplicity adjustments in order to control the type I error of the statistical tests.
The Cox proportional hazard models were used to see potential association between mutated genes/pathways and progression-free survival (PFS).
For single gene-level association, the Benjamini & Hochberg (BH) method was used to compute FDR (also known as q-value). For pathway-level association, as multiple statistical association analyses (linear regression, SKAT and BOT) were conducted for each pathway, and pathways are often correlated through commonly present genes, multiplicity adjustment becomes more complicated. To address these challenges, a re-sampling-based multiplicity adjustment was implemented. The null distributions of p-values from pathway association tests were simulated using parametric bootstrapping. […]

## COc1cc(Nc2ncc3c(n2)-c2ccc(Cl)cc2C(c2c(F)cccc2OC)=NC3)ccc1C(=O)O [alisertib, 4-{[9-chloro-7-(2-fluoro-6-methoxyphenyl)-5H-pyrimido[5,4-d][2]benzazepin-2-yl]amino}-2-methoxybenzoic acid]
[1]
  single agent antitumor activity: clinically meaningful antitumor activity in four of the five solid tumor types
[2]; EP300 mutated vs WT
  est: HR (hazard ratio) for progression free survival (PFS): 0.271
[2]; FAT1 mutated
  est: mean % best tumor size change between mutant and WT groups: −39.70%
[2]; FBXW7 mutated
  est: mean % best tumor size change between mutant and WT groups: 41.96%
[2]; MLL3 mutated vs WT
  est: HR (hazard ratio) for progression free survival (PFS): 0.129
[2]; MLL3 mutated
  est: mean % best tumor size change between mutant and WT groups: −28.84%
[2]; patients with mutated WNT or Hippo signaling pathways vs WT
  response (best tumor size change) of patients with mutated pathway versus wild type: respond more favorably
